Measured values from US9567643B2, “Compositions and methods for treating cancers” (Aptose Biosciences Inc., priority 2013, dated 2017).
Counter-ions that a name gives are not always drawn.

What was measured:
KG-1 = KG-1 AML xenograft model; format: in vivo, mice; details: KG-1 xenograft; 15 mg/kg-iv, bid, 2T/wk; FIG. 20
Description: Xenograft model mice for AML cell line KG-1 was generated with the same method as in Examples 14 and 15, and were treated with LOR-253 HCl or control according to the following regime.
LOR-253—15 mg/kg-iv, bid, 2T/wk—Day 1

HL-60 = HL-60 AML xenograft model; format: in vivo, athymic nude mice; details: HL-60 xenograft, 3 cycles, FIG. 17
Description: The human AML cell line HL-60 was implanted subcutaneously into athymic nude mice. Tumor-bearing mice were treated with LOR-253 HCl alone or in combination with azacitidine, with azacitidine alone, or with a negative control vehicle. The detailed treatment conditions are as follows. • Group 1: Negative control group. LOR-253 HCl control vehicle, 2×/day, 3 cycles of 2 consecutive days, 5 days between cycles, i.v., plus 1% D-mannitol every four days by s.c. injection • Group 2: Azacitidine (in 1% D-mannitol) at 10 mg/kg 1× on days 1, 4, 8, 11, 15 and 18 by subcutaneous (s.c.) injection • Group 3: LOR-253 HCl at 15 mg/kg bid for 3 cycles, each cycle is 2 consecutive days of dosing per week with 5 days of non-dosing, i.v., n=9 (2T-5B) • Group 4: LOR-253 HCl at 15 mg/kg 2×/day (bid) for 3 cycles, each cycle is 1 day of dosing per week with 6 days of non-dosing, i.v., n=9 (1T-6B) • Group 5: Combination of LOR-253 (2T-5B) and azacitidine. LOR-253 HCl at 15 mg/kg bid for 3 cycles, each cycle is 2 consecutive days of dosing per week with 5 days of non-dosing, i.v., n=9 (2T-5B) plus azacitidine at 10 mg/kg 1× every four days by s.c. injection • Group 6: Combination of LOR-253 (1T-6B) and azacitidine. […]
Tumor sizes were measured three times per week.

Kasumi-1 = Kasumi-1 AML xenograft model; format: in vivo, athymic nude mice; details: Kasumi-1 xenograft; 30 mg/kg (15 mg/kg twice per day) i.v., two consecutive days per week, four weeks; p=0.028 by Student's t-test; FIG. 15
Description: (§1) The anti-tumor activity of LOR-253 HCl was evaluated in another in vivo animal model of human AML. The human AML cell line Kasumi-1 was implanted subcutaneously into athymic nude mice. Some tumor-bearing mice were treated with LOR-253 HCl at 30 mg/kg (15 mg/kg twice per day) for two consecutive days per week for four weeks (the “LOR-253 treatment group”). LOR-253 was administered by intravenous (i.v.) bolus injection as the hydrochloric salt form (LOR-253-HCl) formulated in 20% Polyethylene Glycol 400, 10% Propylene Glycol, and 10% Solutol HS in 60% water.
(§2) The major endpoint was to observe for tumor growth inhibition after treatment with LOR-253 HCl and compare the anti-tumor effects of different dosing schedules. Tumor sizes were measured three times per week from day 10 after the tumor cell inoculation. Tumors were measured in three dimensions using calipers and the volume was expressed in millimeters cubed using the formula: V=0.5a×b×c, where a, b, and c are the length, width, and height of the tumor, respectively. Mean tumor volumes+/−standard error (SE) were calculated from each measurement and then plotted in a standard graph to compare the anti-tumor efficacy of drug treatment to that of control (FIG. 15). Toxicity was assessed by clinical observations and by measurement of mouse body weight in grams twice per week over the course of the study. […]

[1] = Toxicity assessment in Kasumi-1 tumor-bearing mice; details: 15 mg/kg twice per day i.v., two days per week, four weeks
Description: as §1, §2

[2] = tested on: advanced or metastatic solid tumours; experiment: Open-label phase 1 dose-escalating study; format: in vivo
Description: Phase I: This was an open-label, phase 1 study to determine the maximum tolerated dose (MTD) or appropriate target dose if MTD not reached to identify the recommended phase 2 dose of LOR-253 HCl in patients with advanced or metastatic solid tumours. In the first set of doses, LOR-253 HCl was given in ascending doses until the maximum administered dose or appropriate target dose is reached. In the other set of doses, LOR-253 HCl was given in ascending doses starting from 20 mg/m2 until the maximum administered dose or appropriate target dose is reached. Patient as treated on LOR-253 HCl for 2 cycles for the evaluation. • Other Name: No other names are used. • Study Type: Interventional • Study Design: • Endpoint Classification: Safety Study • Intervention Model: Single Group Assignment • Masking: Open Label • Primary Purpose: Treatment • Official Title: Open-Label, Phase 1 Study of LOR-253 HCl in Patients With Advanced or Metastatic Solid Tumours Primary Outcome Measures: • To determine the maximum tolerated dose (MTD) or appropriate target dose if MTD not reached to identify the recommended phase 2 dose of LOR-253 HCl in patients with advanced or metastatic solid tumours. [Time Frame: 8 weeks] Secondary Outcome Measures: • To characterize the safety profile of LOR-253 HCl when administered to patients with advanced or metastatic solid tumours. [Time Frame: 8 weeks] Inclusion Criteria: • 1. Male or female 18 years of age or older. • 2. Histologically confirmed diagnosis of solid tumor for which no effective therapy is available or that is unresponsive to conventional therapy. • 3. Meet laboratory parameter requirements at study entry. Exclusion Criteria: • 1. Chemotherapy, radiotherapy, biologic therapy, immunotherapy or any other investigational drugs within 21 days of beginning study treatment with LOR-253 HCl. • 2. A hematologic malignancy. • 3. A history of brain or other central nervous system metastases. • 4. Have a presence of a significant infection. • 5. Clinically significant autoimmune disease. • 6. Uncontrolled intercurrent illness. • 7. With iron or copper overload syndromes. • 8. Pregnancy or breast feeding.

THP-1 = THP-1 AML xenograft model; format: in vivo, mice; details: THP-1 xenograft; Group-2: i.v. Days 1, 2, 8, 9, 15, 16 and IP Days 22-25, 29, 30; FIG. 21
Description: The anti-tumor activity of LOR-253 HCl, as a single agent and in combination with azacitidine, was evaluated in yet another in vivo animal model of human AML. Xenograft model mice for AML cell line THP-1 was generated with the same method as in Examples 14 and 15, and were treated with LOR-253 HCl alone or in combination with azacitidine, with azacitidine alone, or with a negative control vehicle, and tumor sizes were measured as described in Examples 14 and 15. The detailed treatment conditions are shown as follows, and the results are shown in FIG. 21. • Group 1 Control: received i.v. treatments with LOR-253 control vehicle (CV) on Days 1, 2, 8, 9, 15 &16; received subcutaneous (SC) treatments with Azacitidine control vehicle on Days 1, 4, 8, 11, 15, 18, 22, 25, 29 &32; and received intraperitoneal (IP) treatments with LOR-253-CV on Days 22, 23, 24, 25, 29&30. • Group-2—LOR-253: received i.v. treatments on Days 1, 2, 8, 9, 15 &16; received IP treatments on Days 22, 23, 24, 25, 29&30 • Group-3—Azacitidine: received SC treatments on Days 1, 4, 8, 11, 15, 18, 22, 25, 29 &32. • Group-4—Combination: received i.v. treatments with LOR-253 on Days 1, 2, 8, 9, 15 &16; received IP treatments with LOR-253 on Days 22, 23, 24 &25; and received SC-treatment with Azacitidine on Days 1, 4, 8, 11, 15, 18, 22 &25

[3] = GLP blood compatibility studies
CYP450 enzymes = experiment: CYP450 inhibition; format: in vitro ADME; details: preclinical testing
[4] = Pharmacokinetics, serum level after i.v. bolus; format: in vivo; details: CD-1 nude mice; i.v. bolus of LOR-253 HCl at 1, 5, 15 mg/kg; FIG. 10
Description: To study the pharmacokinetic (PK) […], CD-1 nude mice were treated by i.v. bolus injections of LOR-253 HCl at 1, 5, and 15 mg/kg. The serum level of LOR-253 was measured.

[5] = Repeat-dose toxicity study, cardiovascular effects; format: in vivo; details: dogs, highest dose tested (data not shown)
[6] = molecular target: hERG tail current density (Homo sapiens, UniProt Q12809); experiment: hERG tail current inhibition; format: cell-based; details: preclinical testing
[7] = patients with advanced solid tumors, phase I

Sequence of hERG tail current density (Q12809 whole entry): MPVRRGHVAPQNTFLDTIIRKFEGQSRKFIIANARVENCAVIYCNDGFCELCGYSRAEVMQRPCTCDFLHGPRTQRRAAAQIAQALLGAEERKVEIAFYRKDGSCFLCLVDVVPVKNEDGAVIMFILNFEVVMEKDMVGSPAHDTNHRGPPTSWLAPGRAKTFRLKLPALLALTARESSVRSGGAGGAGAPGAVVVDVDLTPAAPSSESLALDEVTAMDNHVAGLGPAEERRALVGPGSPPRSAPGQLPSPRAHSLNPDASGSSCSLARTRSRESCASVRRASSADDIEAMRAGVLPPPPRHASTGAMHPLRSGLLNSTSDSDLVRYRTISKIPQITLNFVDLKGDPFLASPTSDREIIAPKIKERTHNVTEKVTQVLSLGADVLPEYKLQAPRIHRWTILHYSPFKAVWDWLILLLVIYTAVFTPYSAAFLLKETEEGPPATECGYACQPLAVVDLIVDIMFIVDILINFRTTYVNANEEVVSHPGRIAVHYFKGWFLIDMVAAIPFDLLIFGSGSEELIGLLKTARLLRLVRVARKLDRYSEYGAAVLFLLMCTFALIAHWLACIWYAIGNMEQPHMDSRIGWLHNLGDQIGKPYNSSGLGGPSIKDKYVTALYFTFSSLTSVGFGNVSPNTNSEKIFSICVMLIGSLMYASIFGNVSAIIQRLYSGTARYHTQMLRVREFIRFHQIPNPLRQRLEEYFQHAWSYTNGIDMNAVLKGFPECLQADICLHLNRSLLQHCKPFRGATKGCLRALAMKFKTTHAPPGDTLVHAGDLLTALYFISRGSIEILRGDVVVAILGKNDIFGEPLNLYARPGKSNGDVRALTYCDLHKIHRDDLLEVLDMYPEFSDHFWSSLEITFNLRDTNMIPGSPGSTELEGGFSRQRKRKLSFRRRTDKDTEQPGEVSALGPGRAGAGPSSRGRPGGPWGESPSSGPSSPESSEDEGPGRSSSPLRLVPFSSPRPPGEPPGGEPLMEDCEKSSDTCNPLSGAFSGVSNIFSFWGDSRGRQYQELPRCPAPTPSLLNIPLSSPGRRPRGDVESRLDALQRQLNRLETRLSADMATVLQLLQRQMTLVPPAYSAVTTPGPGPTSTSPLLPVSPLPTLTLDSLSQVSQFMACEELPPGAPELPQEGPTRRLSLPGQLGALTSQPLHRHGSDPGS

SMILES | tumor growth inhibition, single agent (KG-1) | inhibition of tumor growth, single agent (HL-60; Group 3: 15 mg/kg twice per day i.v., two consecutive days per week (2T-5B)) | inhibition of tumor growth, single agent (HL-60; Group 4: 15 mg/kg twice per day i.v., one day per week (1T-6B)) | tumor growth inhibition vs vehicle control (Kasumi-1) | overt signs of toxicity (clinical observations) [1] | body weight ([1]; FIG. 16) | safety profile ([2]; N=27 patients across 7 dose levels, phase I) | tumor response in single patient ([2]; patient with NSCLC (poorly differentiated adenocarcinoma) and extensive metastases refractory to prior therapies, FIG. 12) | RECIST partial response [2, 7] | most common AE and SAE [2, 7] | Stable Disease, share of evaluable patients ([2]; patients with advanced solid tumors, phase I, 7 dose levels) | inhibition of tumor growth, single agent (THP-1) | blood compatibility of IV formulation [3] | inhibition of CYP450 enzymes (CYP450 enzymes) | serum level of LOR-253 [4] | cardiovascular effects [5] | inhibition of hERG tail current density [6]
Cc1[nH]c2ccc(F)cc2c1-c1nc2c3cccnc3c3ncccc3c2[nH]1 [LOR-253 HCl] | significant tumor growth inhibition | approximately the same extent as or slightly more than azacitidine alone | approximately the same extent as or slightly more than azacitidine alone | significant tumor growth inhibition | did not show other overt signs of toxicity | did not show body weight loss | Excellent Safety Profile | Tumor shrinkage | No RECIST PR | Fatigue and 1 case of reversible hypophosphatemia | 41% | about the same extent as or slightly more than azacitidine alone |  |  |  |  | 
Cc1[nH]c2ccc(F)cc2c1-c1nc2c3cccnc3c3ncccc3c2[nH]1 [LOR-253] |  |  |  |  |  |  |  |  |  |  |  |  | confirmed the suitability of IV formulation | no significant inhibition | dose related increase | no treatment-related cardiovascular effects | no significant inhibition
